Experimental data published in patent US11135319B2, “Compounds useful as imaging agents of hypoxia” (CENTRE NATIONAL DE LA RECHERCHE SCIENTIFIQUE, priority 2017, dated 2021).

Columns and labels:
[1] = Determination of the partition coefficient (n-octanol/H2O, radioactivity counting); assay type: physicochemical; details: ambient temperature, average of three measurements, read-out: Log P value
Description: Determination of the partition coefficient:
n-Octanol (1 mL) and H2O (1 mL) were mixed for 20 min at ambient temperature before adding 10 μL of radioactively labeled compound. The tube was vigorously agitated by a vortex mixer for 30 min at ambient temperature. Three aliquots of 100 μL were collected from each phase and counted in a Packard Cobra Gamma counter. Log P was calculated as follows: log P=log (concentration of radioactivity in the n-octanol phase/concentration of radioactivity in the aqueous phase). The values provided are an average of the three measurements carried out.

[2] = tested on: rhabdomyosarcoma tumor (hypoxia); experiment: In vivo PET (TEP) imaging of hypoxia in the animal rhabdomyosarcoma model; details: for SUVMax (average) / SUVMean (average): tumor to muscle
Description: The evaluations of the radio-tracers were carried out in the animal rhabdomyosarcoma model provided by Biomedical Magnetic Resonance Research Group (REMA)—Catholic University of Louvain (UCL)—Belgium according to Peeters et al. (Int J Radiat Oncol, 2015) in the comparative study of [^18F]HX-4, [^18F]FMISO and [^18F]FAZA. The in vivo imaging was carried out using an Inveon μTEP/μTDM camera (Siemens). The animals were handled under gaseous anesthesia using isoflurane (induction at 5%, maintenance between 1.5% and 2.5% in 70% N2O/30% O2). The body temperature of the animals was maintained above 37.5° C. while the rate of respiration was constantly monitored, in order to obtain stable anesthesia reproducible from one animal to another. A catheter was placed without surgery (Insight Autoguard 24 Ga) at the caudal vein in order to allow the administration of radio-tracers. TDM acquisition is systematically performed prior to TEP imaging and is used for corrections of attenuation and diffusion of photos as well as for obtaining anatomical data. Acquisitions and reconstructions were performed with a coincidence time of 3.4 ns, an energy window of 350 to 650 keV, the OSEM3D-MAP reconstruction algorithm (respectively 2 and 18 iterations) with the “fastMAP” option, uniform variance and a required resolution of 2.26 mm. 128×128×159 pixels per image, with a voxel size of 0.776×0.776×0.796 mm^3. The images were normalized in SUV (Standardized Uptake Value) and analyzed with the PMOD (3.6 PMODTechnologies) software, by manual delimitation of the volumes of interest (VOIs) “entire tumor” and “muscle” and simultaneously using the 2 imaging modes.
The animals were imaged for 180 consecutive minutes starting with the injection of the radiotracer [^18F]AEL-3156 (23±3 MBq) or [^18F]FMISO (18±3 MBq) coinciding with the beginning of TEP acquisition. The 180 min post-injection time is known to be optimal for this animal model, for obtaining imaging of hypoxia with TEP tracers such as [^18F]FMISO and [^18F]HX4. After TEP imaging and before waking, the animals systematically received an intraperitoneal injection of saline solution (2 mL) in order to rehydrate them.

SMILES | logP at 30 min [1] | SUVMax (average) ([2]; 20-30 min of acquisition) | SUVMean (average) ([2]; 20-30 min of acquisition) | SUVMax (average) ([2]; 40-60 min of acquisition) | SUVMean (average) ([2]; 40-60 min of acquisition) | SUVMax (average) ([2]; 160-180 min of acquisition) | SUVMean (average) ([2]; 160-180 min of acquisition) | tumor to muscle ratio in SUVmax ([2]; at 20-30 min of acquisition) | tumor to muscle ratio in SUVmean ([2]; at 20-30 min of acquisition) | time for which the optimal tumor to muscle ratio remains constant ([2]; post-injection) | tumor to muscle ratio, times lower than [^18F]AEL-3156 ([2]; at 20-30 min of acquisition) [times] | time after which the optimal tumor to muscle ratio is achieved ([2]; of acquisition) [min]
O=[N+]([O-])c1nccn1Cn1cc(CC(CCC[18F])S(=O)(=O)O)nn1 (centres unmarked) [[^18F]AEL-3156] | -2.9 | 5.20 | 2.94 | 5.10 | 2.93 | 2.90 | 1.51 | 5 | 3 | at least 60 min |  | 
O=[N+]([O-])c1nccn1CC(O)C[18F] (centres unmarked) [[^18F]FMISO] |  | 2.04 | 1.00 | 3.64 | 1.45 | 5.42 | 3.42 | 1.7 | 1 |  | 3 | 180
